Data taken from paper PMC6383986, “Fragment-Based Covalent Ligand Screening Enables Rapid Discovery of Inhibitors for the RBR E3 Ubiquitin Ligase HOIP” (Journal of the American Chemical Society, 2019).

What was measured:
[1] = system: NF-κB activation in HEK293T cells overexpressing full length HOIP, HOIL-1L, and SHARPIN; assay: NF-κB Luciferase reporter assay; type: cell-based; details: Homo sapiens, HEK-293T; overnight (17 h) treatment; estimated; read-out: IC50, inhibition of NF-κB activation
Method: suspensions were agitated at 4 °C overnight. The supernatants were removed and kept on ice, and the beads were washed with wash buffer (2 × 0.5 mL), PBS (2 × 0.5 mL), and 50 mM HEPES, 150 mM NaCl, pH 7.5 buffer (2 × 0.5 mL).
A polyubiquitination assay master mix was prepared by mixing E1, UbcH7, ubiquitin, MgCl2, in buffer (50 mM HEPES, 150 mM NaCl, pH 7.5). The solution (30 µL per sample) was added to the beads, and lastly ATP (0.6 µL of 100 mM stock) was added to initiate the reaction. Final concentrations were E1 (0.2 µM), UbcH7 E2 (1 µM), ubiquitin (10 µM), MgCl2 (4 mM), ATP (2 mM). The vials were incubated (Eppendorf Thermomixer) at 25 °C, 900 rpm for 1.5 h. […] All samples were analyzed by SDS PAGE and Western Blot (Figure 6C and Supplementary Figure S13) as described in sections 4.5 and 4.6. […]
(§1) Reporter assays: After incubating the plates for 17 h, Firefly and Renilla Luciferase activity was analyzed using the Dual-Luciferase® Reporter Assay System (Promega) and a BertholdTech […]
(§2) with Mikrowin 2000 software version 4.41: using its injectors to inject 100 µL LAR II and 100 µL Stop&Glo (see manufacturer’s instructions; Promega #E1960). NF-κB regulated luciferase activity was first normalized to Renilla luciferase activity and then the fold activation relative to cells transfected with empty vector calculated. […]
reader. […]

[2] = system: HEK293T cells overexpressing full-length HOIP, HOIL-1L, and SHARPIN; assay: CellTiter-Glo Luminescent cell viability assay, transfected cells; type: cell-based; details: 17 h
Method: Thurston, Imperial College London. 2.3 × 10^6 cells were seeded into 100 mm Petri dishes in DMEM media supplemented with 10% v/v FBS (Biosera) and 1% v/v L-glutamine/penicillin/streptomycin (Sigma-Aldrich) and incubated at 37 °C overnight. The following morning the cells were transfected using either 6 µg pcDNA3 or 4.5 µg HOIP, 0.3 µg HOIL-1L and 1.2 µg SHARPIN as well as 450 ng pRDII Luc and 180 ng pRLTK (Promega) plasmids. 7 h after transfection, the cells were trypsinized and re-suspended in DMEM media supplemented with 1% v/v FBS (Biosera) and 1% v/v L-glutamine/penicillin/streptomycin (Sigma-Aldrich). […]
as §1, §2
Cell viability assays: After incubating the plates for 17 h in the presence of compound, cell viability was determined using the CellTiter-Glo® Luminescent Cell Viability Assay according to manufacturer’s instructions (Promega #G7571). […]

COC(=O)/C=C/CNC(=O)c1cc2c([nH]c1=O)CCCC2 [Compound 11a]
IC50 [1]: 37 ± 4 µM
effect on cell viability [2]: neither compound had any effect on cell viability
